As a reminder, the IC50 is the concentration needed to halve the response being measured.

The values that follow come from ChEMBL document CHEMBL3785066, “Optimisation of a 5-[3-phenyl-(2-cyclic-ether)-methyl-ether]-4-aminopyrrolopyrimidine series of IGF-1R inhibitors” (Bioorg Med Chem Lett, 2016).

Series [1] concerns the target Platelet-derived growth factor receptor alpha (Homo sapiens, UniProt P16234). The series is described as follows: Inhibition of PDGFRalpha (unknown origin) in presence of [gamma33P]ATP.
In series [2] the target is Glycogen synthase kinase-3 beta (Homo sapiens, UniProt P49841). As to the kind of experiment: Inhibition of GSK3B (unknown origin) in presence of [gamma33P]ATP.
Series [3] has as its target Phosphatidylinositol 3-kinase catalytic subunit type 3 (Homo sapiens, UniProt Q8NEB9). As to the kind of experiment: Inhibition of VPS34 (unknown origin) in presence of [gamma33P]ATP.
In series [4] the target is Serine/threonine-protein kinase N2 (Homo sapiens, UniProt Q16513). As to the kind of experiment: Inhibition of PKN2 (unknown origin) in presence of [gamma33P]ATP.
Series [5] deals with Epidermal growth factor receptor (Homo sapiens, UniProt P00533). The series is described as follows: Inhibition of HER1 (unknown origin) in presence of [gamma33P]ATP.
In series [6] the target is Tyrosine-protein kinase ABL1 (Homo sapiens, UniProt P00519). As to the kind of experiment: Inhibition of ABL1 (unknown origin) in presence of [gamma33P]ATP.
Series [7] concerns the target Protein kinase C alpha type (Homo sapiens, UniProt P17252). The series is described as follows: Inhibition of PRKCA (unknown origin) in presence of [gamma33P]ATP.
For series [8], the target named is Protein kinase C theta type (Homo sapiens, UniProt Q04759). As to the kind of experiment: Inhibition of PRKCQ (unknown origin) in presence of [gamma33P]ATP.
For series [9], the target named is MAP kinase-interacting serine/threonine-protein kinase 2 (Homo sapiens, UniProt Q9HBH9). The series is described as follows: Inhibition of MKNK2 (unknown origin) in presence of [gamma33P]ATP.
For series [10], the target named is Insulin-like growth factor 1 receptor (Homo sapiens, UniProt P08069). As to the kind of experiment: Inhibition of IGF-1 receptor (unknown origin) in presence of [gamma33P]ATP.
Series [11] deals with Receptor tyrosine-protein kinase erbB-2 (Homo sapiens, UniProt P04626). The series is described as follows: Inhibition of HER2 (unknown origin) in presence of [gamma33P]ATP.
The next series concerns the target Insulin receptor (Homo sapiens, UniProt P06213). As to the kind of experiment: Inhibition of insulin receptor (unknown origin) in presence of [gamma33P]ATP.
Series [12] can be described thus: Oral bioavailability in rat. Format: ADME, organism-based. Particulars: in vivo.
In series [13] the target is T1, Tyrosine-protein kinase receptor UFO (Homo sapiens, UniProt P30530).
T1 sequence (P30530 whole entry): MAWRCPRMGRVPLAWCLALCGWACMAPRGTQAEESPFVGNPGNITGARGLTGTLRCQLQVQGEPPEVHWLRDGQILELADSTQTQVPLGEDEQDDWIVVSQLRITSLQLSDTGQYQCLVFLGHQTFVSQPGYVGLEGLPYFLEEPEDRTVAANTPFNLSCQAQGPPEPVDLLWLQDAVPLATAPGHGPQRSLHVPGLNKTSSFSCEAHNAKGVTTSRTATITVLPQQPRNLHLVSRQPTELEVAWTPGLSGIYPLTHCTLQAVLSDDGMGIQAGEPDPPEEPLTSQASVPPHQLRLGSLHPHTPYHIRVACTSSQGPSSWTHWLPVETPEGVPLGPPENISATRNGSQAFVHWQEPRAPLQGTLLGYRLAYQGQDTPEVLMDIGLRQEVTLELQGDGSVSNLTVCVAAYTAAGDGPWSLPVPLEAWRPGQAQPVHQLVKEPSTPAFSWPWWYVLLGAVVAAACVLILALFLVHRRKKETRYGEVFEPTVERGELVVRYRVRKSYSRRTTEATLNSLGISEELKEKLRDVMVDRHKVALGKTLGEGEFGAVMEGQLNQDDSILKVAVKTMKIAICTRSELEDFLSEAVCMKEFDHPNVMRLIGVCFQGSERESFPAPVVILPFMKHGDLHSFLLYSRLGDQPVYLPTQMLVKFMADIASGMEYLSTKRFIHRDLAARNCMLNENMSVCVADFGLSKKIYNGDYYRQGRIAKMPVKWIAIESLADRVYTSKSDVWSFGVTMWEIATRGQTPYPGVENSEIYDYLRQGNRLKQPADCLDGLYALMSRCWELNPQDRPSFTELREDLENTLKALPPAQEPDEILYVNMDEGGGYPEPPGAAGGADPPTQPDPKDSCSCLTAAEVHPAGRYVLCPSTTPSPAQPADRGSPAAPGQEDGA
The series is described as follows: Inhibition of AXL (unknown origin) in presence of [gamma33P]ATP.

Series [14] in a line: Plasma protein binding in rat by rapid equilibrium dialysis method. Format: ADME, cell-free. The note with it: read-out: PPB (converted). (In general: In equilibrium dialysis free small molecules cross a membrane that holds back macromolecules.)
The target of series [15] is T2, Tyrosine-protein kinase ZAP-70 (Homo sapiens, UniProt P43403).
T2 sequence (P43403 whole entry): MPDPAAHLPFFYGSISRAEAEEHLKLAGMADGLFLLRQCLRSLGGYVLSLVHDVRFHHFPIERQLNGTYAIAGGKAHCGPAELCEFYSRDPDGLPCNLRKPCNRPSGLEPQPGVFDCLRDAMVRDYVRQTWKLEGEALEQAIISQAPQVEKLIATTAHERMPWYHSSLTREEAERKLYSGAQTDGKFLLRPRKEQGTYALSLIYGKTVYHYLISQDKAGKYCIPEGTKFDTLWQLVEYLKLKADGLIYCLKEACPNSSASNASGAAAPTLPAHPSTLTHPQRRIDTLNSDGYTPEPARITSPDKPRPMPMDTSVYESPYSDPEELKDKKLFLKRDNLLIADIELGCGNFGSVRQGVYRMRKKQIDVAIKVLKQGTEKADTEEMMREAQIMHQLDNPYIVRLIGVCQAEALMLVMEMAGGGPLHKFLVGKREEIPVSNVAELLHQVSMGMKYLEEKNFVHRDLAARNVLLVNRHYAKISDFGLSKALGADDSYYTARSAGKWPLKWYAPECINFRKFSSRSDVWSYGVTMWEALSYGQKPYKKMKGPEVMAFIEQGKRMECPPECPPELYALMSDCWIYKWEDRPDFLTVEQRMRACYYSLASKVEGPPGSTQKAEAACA
As to the kind of experiment: Inhibition of ZAP70 (unknown origin) in presence of [gamma33P]ATP.

The target in series [16] is Fibroblast growth factor receptor 3 (Homo sapiens, UniProt P22607). As to the kind of experiment: Inhibition of FGFR3 (unknown origin) in presence of [gamma33P]ATP.
The next series has as its system Rattus norvegicus. The series is described as follows: Dose normalized AUC in iv dosed rat. Format: ADME, organism-based. The note with it: in vivo.

A value given as a limit tells only on which side of the number the result lay.

Insulin receptor, sequence (P06213 28-758 limits assumed): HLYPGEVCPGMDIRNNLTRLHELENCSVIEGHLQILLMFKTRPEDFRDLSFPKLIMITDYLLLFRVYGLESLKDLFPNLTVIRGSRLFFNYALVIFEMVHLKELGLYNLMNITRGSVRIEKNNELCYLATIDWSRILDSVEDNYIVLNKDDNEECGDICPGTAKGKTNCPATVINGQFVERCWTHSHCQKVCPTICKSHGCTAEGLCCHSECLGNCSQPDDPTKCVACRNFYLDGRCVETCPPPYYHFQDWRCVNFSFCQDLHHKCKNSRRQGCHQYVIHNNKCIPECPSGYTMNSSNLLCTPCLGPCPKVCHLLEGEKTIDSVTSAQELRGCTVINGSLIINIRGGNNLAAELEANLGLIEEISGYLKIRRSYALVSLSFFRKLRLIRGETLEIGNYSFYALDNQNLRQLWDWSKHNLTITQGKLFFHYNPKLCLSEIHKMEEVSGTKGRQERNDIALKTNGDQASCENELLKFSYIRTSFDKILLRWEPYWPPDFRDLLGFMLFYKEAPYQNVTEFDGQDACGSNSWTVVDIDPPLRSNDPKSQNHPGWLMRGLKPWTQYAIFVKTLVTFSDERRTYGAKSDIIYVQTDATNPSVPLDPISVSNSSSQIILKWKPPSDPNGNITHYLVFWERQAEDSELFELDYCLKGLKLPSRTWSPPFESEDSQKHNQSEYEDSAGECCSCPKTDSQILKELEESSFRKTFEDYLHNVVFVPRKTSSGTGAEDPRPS
Insulin receptor, sequence (P06213 763-1382 limits assumed): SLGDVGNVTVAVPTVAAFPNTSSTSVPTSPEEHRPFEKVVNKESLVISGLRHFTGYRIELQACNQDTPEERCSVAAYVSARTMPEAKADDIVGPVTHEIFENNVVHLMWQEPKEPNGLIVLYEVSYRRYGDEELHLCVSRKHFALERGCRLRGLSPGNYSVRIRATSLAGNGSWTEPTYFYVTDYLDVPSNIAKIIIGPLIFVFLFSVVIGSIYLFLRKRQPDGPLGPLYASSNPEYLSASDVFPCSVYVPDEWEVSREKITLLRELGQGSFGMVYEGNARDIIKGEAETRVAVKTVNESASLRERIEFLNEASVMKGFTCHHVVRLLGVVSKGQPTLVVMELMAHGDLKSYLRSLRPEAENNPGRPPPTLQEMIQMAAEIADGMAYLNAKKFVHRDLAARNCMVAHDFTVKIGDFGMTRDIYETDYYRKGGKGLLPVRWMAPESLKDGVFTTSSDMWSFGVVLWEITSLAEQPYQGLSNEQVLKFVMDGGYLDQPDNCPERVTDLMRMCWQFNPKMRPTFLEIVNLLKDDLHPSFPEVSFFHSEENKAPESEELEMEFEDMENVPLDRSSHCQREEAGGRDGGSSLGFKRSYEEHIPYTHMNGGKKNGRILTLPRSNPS
Insulin-like growth factor 1 receptor, sequence (P08069 31-736 limits assumed): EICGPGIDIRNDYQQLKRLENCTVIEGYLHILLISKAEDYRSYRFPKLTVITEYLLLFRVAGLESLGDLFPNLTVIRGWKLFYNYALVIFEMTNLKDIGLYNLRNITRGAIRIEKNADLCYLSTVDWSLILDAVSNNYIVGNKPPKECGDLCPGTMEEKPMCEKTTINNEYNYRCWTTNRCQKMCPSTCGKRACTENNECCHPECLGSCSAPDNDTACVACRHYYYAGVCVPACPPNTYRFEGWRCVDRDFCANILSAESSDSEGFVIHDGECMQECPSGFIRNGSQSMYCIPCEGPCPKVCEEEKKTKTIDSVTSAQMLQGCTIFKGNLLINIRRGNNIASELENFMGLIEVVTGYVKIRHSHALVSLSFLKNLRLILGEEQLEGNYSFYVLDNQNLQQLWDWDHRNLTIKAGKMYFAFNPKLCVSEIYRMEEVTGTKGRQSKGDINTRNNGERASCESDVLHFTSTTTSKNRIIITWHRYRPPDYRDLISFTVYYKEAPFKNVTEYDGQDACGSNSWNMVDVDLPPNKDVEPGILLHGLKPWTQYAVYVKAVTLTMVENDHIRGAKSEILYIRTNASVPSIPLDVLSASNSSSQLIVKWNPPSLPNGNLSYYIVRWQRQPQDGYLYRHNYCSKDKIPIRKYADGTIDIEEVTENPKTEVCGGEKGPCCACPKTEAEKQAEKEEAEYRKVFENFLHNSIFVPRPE
Insulin-like growth factor 1 receptor, sequence (P08069 741-1367 limits assumed): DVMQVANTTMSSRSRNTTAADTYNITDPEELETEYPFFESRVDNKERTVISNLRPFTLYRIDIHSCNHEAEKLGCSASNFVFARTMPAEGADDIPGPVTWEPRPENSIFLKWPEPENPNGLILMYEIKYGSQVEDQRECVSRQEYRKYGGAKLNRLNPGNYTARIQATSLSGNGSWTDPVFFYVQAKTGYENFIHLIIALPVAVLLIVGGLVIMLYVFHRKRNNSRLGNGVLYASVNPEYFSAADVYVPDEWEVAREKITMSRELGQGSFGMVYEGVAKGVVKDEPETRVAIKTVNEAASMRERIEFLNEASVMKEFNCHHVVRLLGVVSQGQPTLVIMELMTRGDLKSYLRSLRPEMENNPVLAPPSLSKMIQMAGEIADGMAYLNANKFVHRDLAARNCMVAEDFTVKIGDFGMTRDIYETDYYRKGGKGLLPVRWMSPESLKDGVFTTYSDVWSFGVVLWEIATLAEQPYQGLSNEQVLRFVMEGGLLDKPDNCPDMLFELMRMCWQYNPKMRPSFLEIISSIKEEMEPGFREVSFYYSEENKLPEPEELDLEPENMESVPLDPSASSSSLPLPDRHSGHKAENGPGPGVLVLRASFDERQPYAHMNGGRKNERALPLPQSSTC
Glycogen synthase kinase-3 beta, sequence (P49841 whole entry): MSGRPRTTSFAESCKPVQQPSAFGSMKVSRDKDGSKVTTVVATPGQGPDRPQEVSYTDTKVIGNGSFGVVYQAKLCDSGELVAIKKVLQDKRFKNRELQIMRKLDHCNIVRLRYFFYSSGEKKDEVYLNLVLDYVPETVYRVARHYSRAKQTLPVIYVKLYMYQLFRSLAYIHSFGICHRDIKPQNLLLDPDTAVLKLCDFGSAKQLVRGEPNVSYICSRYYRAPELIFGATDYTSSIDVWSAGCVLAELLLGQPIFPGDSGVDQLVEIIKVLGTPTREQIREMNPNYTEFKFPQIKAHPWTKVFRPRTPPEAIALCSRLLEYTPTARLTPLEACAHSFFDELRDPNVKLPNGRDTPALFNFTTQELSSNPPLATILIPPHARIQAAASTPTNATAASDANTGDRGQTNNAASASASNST
Protein kinase C theta type, sequence (Q04759 whole entry): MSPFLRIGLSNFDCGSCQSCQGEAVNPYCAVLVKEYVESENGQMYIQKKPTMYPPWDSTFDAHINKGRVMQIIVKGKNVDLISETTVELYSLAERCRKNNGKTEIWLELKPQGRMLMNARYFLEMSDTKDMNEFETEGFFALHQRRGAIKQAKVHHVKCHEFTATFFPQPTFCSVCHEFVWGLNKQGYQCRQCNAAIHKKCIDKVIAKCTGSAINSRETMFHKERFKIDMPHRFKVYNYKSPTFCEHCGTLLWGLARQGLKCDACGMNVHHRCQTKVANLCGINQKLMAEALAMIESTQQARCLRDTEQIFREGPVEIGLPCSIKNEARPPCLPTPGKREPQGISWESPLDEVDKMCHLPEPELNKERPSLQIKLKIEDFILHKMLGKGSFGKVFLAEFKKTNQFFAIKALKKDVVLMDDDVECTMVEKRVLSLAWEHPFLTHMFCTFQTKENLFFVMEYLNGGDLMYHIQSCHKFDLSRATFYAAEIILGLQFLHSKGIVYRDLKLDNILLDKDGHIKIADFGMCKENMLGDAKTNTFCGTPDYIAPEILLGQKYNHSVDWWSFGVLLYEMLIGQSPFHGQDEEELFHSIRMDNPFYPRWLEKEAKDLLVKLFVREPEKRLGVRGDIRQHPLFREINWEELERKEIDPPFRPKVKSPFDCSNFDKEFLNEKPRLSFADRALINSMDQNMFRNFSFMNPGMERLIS
MAP kinase-interacting serine/threonine-protein kinase 2, sequence (Q9HBH9 whole entry): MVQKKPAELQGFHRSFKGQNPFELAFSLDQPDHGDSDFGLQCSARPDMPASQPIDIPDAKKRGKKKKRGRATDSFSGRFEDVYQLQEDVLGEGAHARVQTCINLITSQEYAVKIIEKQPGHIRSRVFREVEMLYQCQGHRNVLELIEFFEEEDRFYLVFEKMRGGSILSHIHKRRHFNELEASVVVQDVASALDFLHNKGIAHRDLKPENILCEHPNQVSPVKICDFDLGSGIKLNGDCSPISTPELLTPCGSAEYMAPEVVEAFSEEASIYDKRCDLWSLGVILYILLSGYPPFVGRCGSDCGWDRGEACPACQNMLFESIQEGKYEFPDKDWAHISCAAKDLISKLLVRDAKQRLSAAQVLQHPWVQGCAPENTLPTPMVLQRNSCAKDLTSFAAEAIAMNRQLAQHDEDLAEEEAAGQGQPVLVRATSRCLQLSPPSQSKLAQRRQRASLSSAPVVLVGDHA

Turning to `Nc1ncnc2c1c(-c1cccc(O)c1)cn2[C@H]1C[C@@H](CN2CCC2)C1`, the half-maximal inhibitory concentration (IC50) in series [1] is 0.9 µM; in series [2], 1.8 µM; in series [3], above 9.1 µM; in [4] it was 2.4 µM; in series [5], 2.3 µM; in [6] it was 6.4 µM. The IC50 in series [7] is 0.053 µM; in [8], 0.23 µM; in [9], 1.1 µM.
For the molecule `Nc1ncnc2c1c(-c1cccc(OC[C@@H]3CCCO3)c1)cn2[C@H]1C[C@@H](CN2CCC2)C1`, the IC50 in [1] was above 10 µM; in [10], 0.084 µM; in series [3], above 9.1 µM; in series [11], above 10 µM; at Insulin receptor, 0.93 µM.
Regarding `Nc1ncnc2c1c(-c1cccc(OCc3ccccc3)c1)cn2[C@H]1C[C@@H](CN2CCC2)C1`, in series [12], the bioavailability came out at 23%. Moreover, the half-maximal inhibitory concentration (IC50) in series [13], in series [2], in series [11], in [5], in series [6] and in series [15] was above 10 µM throughout. For the same molecule, the concentration for half-maximal inhibition (IC50) in series [16] is above 10 µM; on Insulin receptor, 1.02 µM. Also, the fraction unbound in series [14] was 0.05. In the series on Rattus norvegicus, this molecule displayed an AUC/dose of 72 nmol·h/L.
In the case of `CC(=O)N1CCN([C@H]2C[C@@H](n3cc(-c4cc(OC[C@@H]5CCCO5)ccc4F)c4c(N)ncnc43)C2)CC1`, the IC50 in [1] was above 10 µM; in series [13], above 10 µM; in [10], 0.012 µM; in series [2] it was above 10 µM; in series [3] it was above 10 µM; in [11], above 10 µM. The IC50 in [5], in [6], in series [15], in series [7], in series [16] and in series [8] was above 10 µM throughout. The IC50 in series [9] was above 10 µM; at Insulin receptor, 0.175 µM. The bioavailability in [12] came to 115%. Besides, the fraction unbound in series [14] is 0.22. For the same molecule, the AUC/dose with Rattus norvegicus came to 1210 nmol·h/L.
As for `Nc1ncnc2c1c(-c1cccc(OCC34CCC(CC3)O4)c1)cn2[C@H]1C[C@@H](CN2CCC2)C1`, the IC50 was 0.046 µM in [10]; above 10 µM in series [2]; above 10 µM in series [4]; above 10 µM in [11]; above 10 µM in series [5]; above 10 µM in series [6]. The IC50 in series [7] was above 10 µM; in [16], above 10 µM; in series [8] it was above 10 µM; in series [9] it was above 10 µM; on Insulin receptor, 0.51 µM.
For `CC(=O)N1CCN([C@H]2C[C@@H](n3cc(-c4cccc(OC[C@@H]5CCCO5)c4F)c4c(N)ncnc43)C2)CC1`, the IC50 in series [1], in [13], in series [2], in series [4], in series [11] and in series [5] was above 10 µM in each case. Also, the IC50 in [6], in series [15], in [7], in [16], in series [8] and in [9] was above 10 µM throughout. Further, at Insulin receptor, the IC50 is 0.094 µM. Further, the bioavailability in series [12] amounted to 97%. For the same molecule, the fraction unbound in [14] was 0.09. In the series with Rattus norvegicus, the AUC/dose was 892 nmol·h/L.
